ChEMBL document CHEMBL1153212, “P4 capped amides and lactams as HCV NS3 protease inhibitors with improved potency and DMPK profile” (Bioorg Med Chem Lett, 2010)

Columns and labels:
[1] = Selectivity for HCV NS4A-tethered single chain NS3 serine protease over human neutrophil elastase
[2] = Inhibition of HCV NS4A-tethered single chain NS3 serine protease by spectrophotometric assay; design: species or system Hepacivirus hominis
Hepatitis C virus = experiment: Antiviral activity against HCV assessed as inhibition of viral RNA replication; assay type: functional, Hepacivirus hominis
[3] = AUC in rat at 10 mg/kg, po; assay type: ADME, organism-based; design: dose 10 mg/kg, route oral; settings: plasma

| Structure (SMILES) | Ratio [1] | Ki [2] [µM] | EC90 (Hepatitis C virus) [µM] | AUC [3] [µM·h] |
| --- | --- | --- | --- | --- |
| C=CCNC(=O)C(=O)C(CCC)NC(=O)[C@@H]1[C@@H]2[C@H](CN1C(=O)[C@@H](NC(=O)N[C@@H](CN(C)C(=O)C(F)(F)F)C(C)(C)C)C(C)(C)C)C2(C)C (stereo not given in full) | 75 | 0.042 | – | – |
| C=CCNC(=O)C(=O)C(CCC)NC(=O)[C@@H]1[C@@H]2[C@H](CN1C(=O)[C@@H](NC(=O)N[C@@H](CN1CCCC(C)(C)C1=O)C(C)(C)C)C(C)(C)C)C2(C)C (stereo not given in full) | 90 | 0.089 | – | – |
| C=CCNC(=O)C(=O)C(CCC)NC(=O)[C@@H]1[C@@H]2[C@H](CN1C(=O)[C@@H](NC(=O)OC(C)(C)C)C(C)(C)C)C2(C)C (stereo not given in full) | – | 1.5 | – | – |
| C=CCNC(=O)C(=O)C(CCC)NC(=O)[C@@H]1[C@@H]2[C@H](CN1C(=O)[C@@H](NC(=O)N[C@@H](CN1CCCCC1=O)C(C)(C)C)C1CCCCC1)C2(C)C (stereo not given in full) | 7 | 0.0018 | 0.11 | 0.7 |
| C#CCCC(NC(=O)[C@@H]1[C@@H]2[C@H](CN1C(=O)[C@@H](NC(=O)N[C@@H](CN1CCC(C)(C)CC1=O)C(C)(C)C)C(C)(C)C)C2(C)C)C(=O)C(=O)NCC=C (stereo not given in full) | 210 | 0.005 | 0.06 | 0.49 |
| C=CCNC(=O)C(=O)C(CCC)NC(=O)[C@@H]1[C@@H]2[C@H](CN1C(=O)[C@@H](NC(=O)N[C@@H](CN1CC3CCC(C3)C1=O)C(C)(C)C)C(C)(C)C)C2(C)C (stereo not given in full) | 613 | 0.008 | 0.06 | 0.53 |
| C=CCNC(=O)C(=O)C(CCC)NC(=O)[C@@H]1[C@@H]2[C@H](CN1C(=O)[C@@H](NC(=O)N[C@@H](CN(C)C(C)=O)C(C)(C)C)C(C)(C)C)C2(C)C (stereo not given in full) | 150 | 0.037 | 0.55 | – |
| C=CCNC(=O)C(=O)C(CCCC)NC(=O)[C@@H]1[C@@H]2[C@H](CN1C(=O)[C@@H](NC(=O)N[C@@H](CN1CCC(C)(C)CC1=O)C(C)(C)C)C(C)(C)C)C2(C)C (stereo not given in full) | 850 | 0.019 | 0.08 | – |
| C=CCNC(=O)C(=O)C(CCC)NC(=O)[C@@H]1[C@@H]2[C@H](CN1C(=O)[C@@H](NC(=O)N[C@@H](CN(C)C(=O)C1CC1)C(C)(C)C)C(C)(C)C)C2(C)C (stereo not given in full) | 280 | 0.091 | – | – |
| C=CCNC(=O)C(=O)C(CCC)NC(=O)[C@@H]1[C@@H]2[C@H](CN1C(=O)[C@@H](NC(=O)N[C@@H](CN1CCCOC1=O)C(C)(C)C)C(C)(C)C)C2(C)C (stereo not given in full) | 100 | 0.01 | 0.35 | – |
| C=CCNC(=O)C(=O)C(CCC)NC(=O)[C@@H]1[C@@H]2[C@H](CN1C(=O)[C@@H](NC(=O)N[C@@H](CN(C)C(=O)C(C)(C)C)C(C)(C)C)C(C)(C)C)C2(C)C (stereo not given in full) | – | 23 | – | – |
| C=CCNC(=O)C(=O)C(CCC)NC(=O)[C@@H]1[C@@H]2[C@H](CN1C(=O)[C@@H](NC(=O)N[C@@H](CN1CCC(C)(C)CC1=O)C(C)(C)C)C1Cc3ccccc3C1)C2(C)C (stereo not given in full) | 110 | 0.007 | 0.08 | – |
| C=CCNC(=O)C(=O)C(CCC)NC(=O)[C@@H]1[C@@H]2[C@H](CN1C(=O)[C@@H](NC(=O)N[C@@H](CN1CCCCC1)C(C)(C)C)C(C)(C)C)C2(C)C (stereo not given in full) | – | 2.3 | – | – |
| C=CCNC(=O)C(=O)C(CCC)NC(=O)[C@@H]1[C@@H]2[C@H](CN1C(=O)[C@@H](NC(=O)N[C@@H](CN1Cc3ccccc3C1=O)C(C)(C)C)C(C)(C)C)C2(C)C (stereo not given in full) | 1500 | 0.04 | – | – |
| C=CCNC(=O)C(=O)C(CC1CCC1)NC(=O)[C@@H]1[C@@H]2[C@H](CN1C(=O)[C@@H](NC(=O)N[C@@H](CN1CCC(C)(C)CC1=O)C(C)(C)C)C(C)(C)C)C2(C)C (stereo not given in full) | 1900 | 0.028 | 0.07 | 1 |
| C=CCNC(=O)C(=O)C(CC1CC1)NC(=O)[C@@H]1[C@@H]2[C@H](CN1C(=O)[C@@H](NC(=O)N[C@@H](CN1CCC(C)(C)CC1=O)C(C)(C)C)C(C)(C)C)C2(C)C (stereo not given in full) | 870 | 0.015 | 0.07 | 3.52 |
| C=CCNC(=O)C(=O)C(CCC)NC(=O)[C@@H]1[C@@H]2[C@H](CN1C(=O)[C@@H](NC(=O)N[C@@H](CN1CCCCC1=O)C(C)(C)C)C1Cc3ccccc3C1)C2(C)C (stereo not given in full) | 18 | 0.009 | 0.08 | 0.68 |
| C=CCNC(=O)C(=O)C(CCC)NC(=O)[C@@H]1[C@@H]2[C@H](CN1C(=O)[C@@H](NC(=O)N[C@@H](CN1CCCC1=O)C(C)(C)C)C(C)(C)C)C2(C)C (stereo not given in full) | 60 | 0.037 | 0.7 | – |
| C=CCNC(=O)C(=O)C(CCC)NC(=O)[C@@H]1[C@@H]2[C@H](CN1C(=O)[C@@H](NC(=O)N[C@@H](CN1CCC(C)(C)CC1=O)C(C)(C)C)C(C)(C)C)C2(C)C (stereo not given in full) | 310 | 0.017 | 0.08 | 2.3 |
| C=CCNC(=O)C(=O)C(CCC)NC(=O)[C@@H]1[C@@H]2[C@H](CN1C(=O)[C@@H](NC(=O)N[C@@H](CN1CCC(C)(C)CC1=O)C(C)(C)C)C1CCCCC1)C2(C)C (stereo not given in full) | 60 | 0.0019 | 0.045 | 2.09 |
| C=CCNC(=O)C(=O)C(CCC)NC(=O)[C@@H]1[C@@H]2[C@H](CN1C(=O)[C@@H](NC(=O)N[C@@H](CN1Cc3ccccc3CC1=O)C(C)(C)C)C(C)(C)C)C2(C)C (stereo not given in full) | 250 | 0.019 | 0.2 | – |
| C=CCNC(=O)C(=O)C(CCC)NC(=O)[C@@H]1[C@@H]2[C@H](CN1C(=O)[C@@H](NC(=O)N[C@@H](CN1CCCNC1=O)C(C)(C)C)C(C)(C)C)C2(C)C (stereo not given in full) | 360 | 0.0049 | 0.18 | 0.07 |
| CC(C)(C)NC(=O)N[C@H](C(=O)N1C[C@H]2[C@@H]([C@H]1C(=O)NC(CC1CCC1)C(=O)C(N)=O)C2(C)C)C(C)(C)C (stereo not given in full) [BOCEPREVIR] | – | 0.014 | 0.35 | – |
| C=CCNC(=O)C(=O)C(CCC)NC(=O)[C@@H]1[C@@H]2[C@H](CN1C(=O)[C@@H](NC(=O)N[C@@H](CN1CCCCC1=O)C(C)(C)C)C(C)(C)C)C2(C)C (stereo not given in full) | 320 | 0.014 | 0.35 | – |
